{"source": "paper PMC10294390", "about": "(BMC Complementary Medicine and Therapies, 2023)", "key": {"[1]": {"details": "clinical treatment with Sora, cited from earlier work"}, "[2]": {"tested_on": "SW1116 cells", "assay": "Annexin V-FITC/PI double staining, flow cytometry", "type": "cell-based, human", "experimental": "(§1) The levels of cell surface phosphatidylserine were determined to monitor the type of cell death and the kinetics of apoptosis. The CRC cell lines SW1116 and SW837 were seeded (2.5 × 10^5 cells/well) into 24-well plates and incubated in a non-CO2 incubator at 37 °C for 18 h. […] The cells were subsequently washed twice with HBSS and harvested using trypsin. Finally, the cells were double-stained using the Annexin V-FITC-Flous staining kit, according to the manufacturer’s instructions (Roche Diagnostic GmbH). Annexin V-Flous labelling solution containing Annexin V-FITC and PI (100 µl) was added to both the treated and control cell groups and incubated at 15–20 °C for 15 min. The cells (1 × 10^6 cells/ml) were then resuspended in binding buffer, and fluorescence was monitored using flow cytometry (FC500; Beckman Coulter, Inc.)."}, "[3]": {"tested_on": "SW837 cells", "assay": "Annexin V-FITC/PI double staining, flow cytometry", "type": "cell-based, human", "experimental": "as §1"}, "[4]": {"tested_on": "DLD-1 colon tumor model", "design": "method as in PMID 14692718", "details": "cited from earlier work"}, "[5]": {"tested_on": "SW837 human rectum cancer cell line", "assay": "MTT assay, single and schedule-dependent combined treatment", "type": "cell-based", "details": "Sora 0.25-10 µM alone; for IC50: Homo sapiens, SW837, SW837, read-out: IC-values (µM): IC50", "experimental": "(§2) The plates were washed, and PPCs [Cur, Kmf, or Que (60 or 120 µM), or Rsv (40 or 80 µM)] were added, followed by incubation at 37 °C for 48 h. For inverted sequential treatment, PPC [Cur, Kmf, or Que (60 or 120 µM), or Rsv (40 or 80 µM)] was added and incubated at 37 °C for 24 h. […] Cell growth was monitored as previously described."}, "[6]": {"tested_on": "SW1116 human colon cancer cell line", "assay": "MTT assay, single and schedule-dependent combined treatment", "type": "cell-based", "details": "Sora 0.25-10 µM alone; for IC80: Homo sapiens, SW 1116, 72 h, read-out: IC-values (µM): IC80", "experimental": "as §2"}, "[7]": {"tested_on": "SW1116 cells", "assay": "Cell cycle analysis by flow cytometry (PI)", "type": "cell-based, human", "details": "Sora 5 µM, 72 h", "experimental": "(§3) The cells were subsequently processed using a DNA-prep kit and DNA-Prep EPICS workstation. The cells were treated with a non-ionic detergent to permeabilize the cell membrane, followed by propidium iodide (PI) and RNase, and incubated at 15–20 °C for 15 min. The cells were resuspended in binding buffer at a concentration of 3–10 × 10^6 cells/ml for optimal staining. Fluorescence was measured using a flow cytometer (Beckman Coulter, Inc.), and the percentage of cells in the different phases of the cell cycle was calculated using the Phoenix statistical software package, Advanced DNA cell cycle software (Phoenix Flow System)."}, "[8]": {"tested_on": "SW837 cells", "assay": "Cell cycle analysis by flow cytometry (PI)", "type": "cell-based, human", "details": "Sora 5 µM, 72 h", "experimental": "as §3"}, "[9]": {"tested_on": "SW1116 cells", "assay": "DNA fragmentation assay", "type": "cell-based, human", "details": "Sora 5 µM, PPC 200 and 400 µM, simultaneous combinations, 72 h, Fig. 8A, C", "experimental": "(§4) Induction of apoptosis was monitored using a DNA fragmentation assay following the manufacturer’s instructions (Apoptotic DNA Ladder Detection kit; Abcam). […] Cells were subsequently incubated at 37 °C for 72 h. The cells were then trypsinized, harvested, washed, pelleted, and lysed using Tris–EDTA (TE) lysis buffer (35 µl). Enzyme A solution (RNase; 5 µl) was added, followed by incubation at 37 °C for 10 min. Enzyme B solution (proteinase; 5 µl) was then added, followed by incubation at 50 °C for 30 min. Ammonium acetate solution (5 µl) and isopropanol (50 µl) were added to each sample and incubated at -20 °C for 10 min. Finally, the DNA was pelleted, washed with 0.5 ml 70% methanol, and dissolved in 30 µl DNA suspension buffer. The extracted DNA samples were loaded onto a 1.2% agarose gel, along with a loading marker (1 kb DNA ladder), and subjected to electrophoresis, using a running buffer containing 1.35 µg/ml ethidium bromide at 5 V/cm for 1 h. Ethidium bromide-stained DNA bands were visualized using transillumination with UV light."}, "[10]": {"tested_on": "SW837 cells", "assay": "DNA fragmentation assay", "type": "cell-based, human", "details": "Sora 5 µM, PPC 200 and 400 µM, sequential combinations, 72 h, Fig. 8B, D", "experimental": "as §4"}, "[11]": {"tested_on": "SW837 human rectum cancer cell line", "assay": "MTT assay, single and schedule-dependent combined treatment", "type": "cell-based", "details": "Sora 0.25-10 µM alone"}, "[12]": {"details": "arm a of inverted sequential: Que 24 h followed by Sora 48 h"}, "[13]": {"details": "arm a of inverted sequential: Rsv 24 h followed by Sora 48 h"}, "[14]": {"details": "arm a of sequential: Sora 24 h followed by Que 48 h"}, "[15]": {"details": "arm a of sequential: Sora 24 h followed by Rsv 48 h"}, "[16]": {"details": "arm a of simultaneous Sora and Cur 72 h"}, "[17]": {"details": "arm a of simultaneous Sora and Kmf 72 h"}}, "note": "Like-named read-outs stand apart in the source and are kept apart here.", "data": [{"smiles": "CNC(=O)c1cc(Oc2ccc(NC(=O)Nc3ccc(Cl)c(C(F)(F)F)c3)cc2)ccn1", "note": "[Sora, sorafenib]", "values": [{"measurement": "patients in whom side effects demand a dose reduction", "setting": "[1]", "result": "> 60", "unit": "%"}, {"measurement": "patients with inhibition of treatment due to side effects", "setting": "[1]", "result": "6–25%"}, {"measurement": "patients developing toxic side effects", "setting": "[1]; hand-foot syndrome, diarrhoea, fatigue, rash, weight loss", "result": "up to 80%"}, {"measurement": "viability at 5 µM", "setting": "[2]; Homo sapiens, SW 1116, 72 h, read-out: B3, percentage of viable cells", "result": 14.1, "unit": "%"}, {"measurement": "B1, percentage of necrotic cells", "setting": "[2]; SW1116, Sora 5 µM, 72 h", "result": 13.6, "unit": "%"}, {"measurement": "B2, percentage of late apoptotic cells", "setting": "[2]; SW1116, Sora 5 µM, 72 h", "result": 37.3, "unit": "%"}, {"measurement": "B4, percentage of early apoptotic cells", "setting": "[2]; SW1116, Sora 5 µM, 72 h", "result": 35, "unit": "%"}, {"measurement": "viability at 5 µM", "setting": "[3]; Homo sapiens, SW837, 72 h, read-out: B3, percentage of viable cells", "result": 52.4, "unit": "%"}, {"measurement": "B1, percentage of necrotic cells", "setting": "[3]; SW837, Sora 5 µM, 72 h", "result": 9.6, "unit": "%"}, {"measurement": "B2, percentage of late apoptotic cells", "setting": "[3]; SW837, Sora 5 µM, 72 h", "result": 33.6, "unit": "%"}, {"measurement": "B4, percentage of early apoptotic cells", "setting": "[3]; SW837, Sora 5 µM, 72 h", "result": 4.7, "unit": "%"}, {"measurement": "delay of tumor cell growth", "setting": "[4]", "result": 100, "unit": "%"}, {"measurement": "IC50", "setting": "[5]; [12]", "result": 6.86, "unit": "µM"}, {"measurement": "IC50", "setting": "[5]; [13]", "result": 6.57, "unit": "µM"}, {"measurement": "IC50", "setting": "[5]; [14]", "result": 6.86, "unit": "µM"}, {"measurement": "IC50", "setting": "[5]; [15]", "result": 6.86, "unit": "µM"}, {"measurement": "IC-values (µM): IC60", "setting": "[5]; SW837, arm a of inverted sequential: Cur 24 h followed by Sora 48 h", "result": "IC60 = 8.00 µM"}, {"measurement": "IC-values (µM): IC60", "setting": "[5]; SW837, arm a of inverted sequential: Kmf 24 h followed by Sora 48 h", "result": "IC60 = 7.43 µM"}, {"measurement": "IC-values (µM): IC70", "setting": "[5]; SW837, arm a of sequential: Sora 24 h followed by Cur 48 h", "result": "IC70 = 0.86 µM"}, {"measurement": "IC-values (µM): IC60", "setting": "[5]; SW837, arm a of sequential: Sora 24 h followed by Kmf 48 h", "result": "IC60 = 7.43 µM"}, {"measurement": "IC80", "setting": "[6]; [16]", "result": 4.86, "unit": "µM"}, {"measurement": "IC80", "setting": "[6]; [17]", "result": 4.86, "unit": "µM"}, {"measurement": "IC80", "setting": "[6]; arm a of simultaneous Sora and Que 72 h", "result": 4, "unit": "µM"}, {"measurement": "IC-values (µM): IC70", "setting": "[6]; arm a of inverted sequential: Cur 24 h followed by Sora 48 h", "result": "IC70 = 6.00 µM"}, {"measurement": "IC-values (µM): IC60", "setting": "[6]; arm a of inverted sequential: Kmf 24 h followed by Sora 48 h", "result": "IC60 = 4.86 µM"}, {"measurement": "IC-values (µM): IC60", "setting": "[6]; [12]", "result": "IC60 = 4.86 µM"}, {"measurement": "IC-values (µM): IC60", "setting": "[6]; [13]", "result": "IC60 = 4.86 µM"}, {"measurement": "IC-values (µM): IC60", "setting": "[6]; arm a of sequential: Sora 24 h followed by Cur 48 h", "result": "IC60 = 7.70 µM"}, {"measurement": "IC-values (µM): IC60", "setting": "[6]; arm a of sequential: Sora 24 h followed by Kmf 48 h", "result": "IC60 = 0.57 µM"}, {"measurement": "IC-values (µM): IC60", "setting": "[6]; [14]", "result": "IC60 = 0.57 µM"}, {"measurement": "IC-values (µM): IC60", "setting": "[6]; [15]", "result": "IC60 = 0.57 µM"}, {"measurement": "%G0/G1 (cells in G0/G1 phase)", "setting": "[7]", "result": 38.0, "unit": "%"}, {"measurement": "%G2/M (cells in G2/M phase)", "setting": "[7]", "result": 0.0, "unit": "%"}, {"measurement": "%S (cells in S phase)", "setting": "[7]", "result": 61.0, "unit": "%"}, {"measurement": "%SubG1 (cells in sub G1)", "setting": "[7]", "result": 8.4, "unit": "%"}, {"measurement": "%G0/G1 (cells in G0/G1 phase)", "setting": "[8]", "result": 52.0, "unit": "%"}, {"measurement": "%G2/M (cells in G2/M phase)", "setting": "[8]", "result": 12.9, "unit": "%"}, {"measurement": "%S (cells in S phase)", "setting": "[8]", "result": 34.9, "unit": "%"}, {"measurement": "%SubG1 (cells in sub G1)", "setting": "[8]", "result": 1.4, "unit": "%"}, {"measurement": "induction of apoptosis as indicated by DNA fragmentation", "setting": "[9]", "result": "marked induction of apoptosis"}, {"measurement": "DNA fragmentation", "setting": "[10]", "result": "increased levels of DNA fragmentation"}, {"measurement": "IC50", "setting": "[11]; Homo sapiens, SW837, 72 h, arm a of simultaneous Sora and Que 72 h, read-out: IC-values (µM): IC50", "result": 6.57, "unit": "µM"}, {"measurement": "IC-values (µM): IC60", "setting": "[11]; [16]", "result": "IC60 = 7.43 µM"}, {"measurement": "IC-values (µM): IC60", "setting": "[11]; [17]", "result": "IC60 = 7.14 µM"}, {"measurement": "IC-values (µM): IC60", "setting": "[11]; arm a of simultaneous Sora and Rsv 72 h", "result": "IC60 = 7.71 µM"}]}]}
